# Active and inactive are the calls of the source.
# Assays:
# [1] = biological target: Neurotensin receptor type 1 (Homo sapiens, UniProt P30989); format: functional;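 note: Image-based confirmatory dose-response assay measuring agonist activity at NTR1; NTR1-expressing U2OS osteosarcoma cells imaged for beta-arrestin GFP spot formation; agonist potency where compounds increase beta-arrestin recruitment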
# CAAX prenyl protease 2 = biological target: T1, CAAX prenyl protease 2 (Saccharomyces cerevisiae S288c, UniProt Q03530); format: biochemical
# T1 sequence (Q03530 whole entry): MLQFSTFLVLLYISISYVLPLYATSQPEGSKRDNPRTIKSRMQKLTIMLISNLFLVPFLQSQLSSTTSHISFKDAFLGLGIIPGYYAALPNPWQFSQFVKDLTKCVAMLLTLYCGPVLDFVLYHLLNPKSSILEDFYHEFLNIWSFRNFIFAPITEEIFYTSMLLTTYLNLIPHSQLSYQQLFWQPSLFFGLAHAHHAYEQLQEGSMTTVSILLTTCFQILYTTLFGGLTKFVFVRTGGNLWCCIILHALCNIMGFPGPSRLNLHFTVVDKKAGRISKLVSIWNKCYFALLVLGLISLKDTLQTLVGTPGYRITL
# [2] = biological target: T2, Nucleotide-binding oligomerization domain-containing protein 1 (Homo sapiens, UniProt Q9Y239); assay: blockers of NOD1 pathway activity – revised, SAR follow-up (AID 2333); format: functional
# T2 sequence (Q9Y239 whole entry): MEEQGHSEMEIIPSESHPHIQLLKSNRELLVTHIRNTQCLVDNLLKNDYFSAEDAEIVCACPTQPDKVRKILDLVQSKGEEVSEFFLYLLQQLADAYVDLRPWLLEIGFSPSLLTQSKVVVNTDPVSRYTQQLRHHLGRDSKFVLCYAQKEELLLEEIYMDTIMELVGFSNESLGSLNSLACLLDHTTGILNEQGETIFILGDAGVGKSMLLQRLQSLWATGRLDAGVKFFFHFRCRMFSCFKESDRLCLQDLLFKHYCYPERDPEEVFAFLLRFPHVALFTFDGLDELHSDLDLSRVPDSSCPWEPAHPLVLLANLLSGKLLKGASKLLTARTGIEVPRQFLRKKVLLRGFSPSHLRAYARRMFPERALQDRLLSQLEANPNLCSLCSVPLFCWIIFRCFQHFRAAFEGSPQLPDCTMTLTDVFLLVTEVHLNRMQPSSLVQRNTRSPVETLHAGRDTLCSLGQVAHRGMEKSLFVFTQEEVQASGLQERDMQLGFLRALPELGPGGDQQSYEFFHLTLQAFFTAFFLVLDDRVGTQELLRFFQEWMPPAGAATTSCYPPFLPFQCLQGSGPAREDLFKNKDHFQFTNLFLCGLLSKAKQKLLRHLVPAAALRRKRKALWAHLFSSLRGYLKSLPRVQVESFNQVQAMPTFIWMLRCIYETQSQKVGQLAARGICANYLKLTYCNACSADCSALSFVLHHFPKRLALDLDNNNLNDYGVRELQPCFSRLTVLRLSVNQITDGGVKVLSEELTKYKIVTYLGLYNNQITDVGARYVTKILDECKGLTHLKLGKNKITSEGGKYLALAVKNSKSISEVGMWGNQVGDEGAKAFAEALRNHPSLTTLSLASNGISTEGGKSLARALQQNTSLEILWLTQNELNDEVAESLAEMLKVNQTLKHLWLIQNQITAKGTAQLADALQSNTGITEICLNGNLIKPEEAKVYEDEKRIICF
# HEK293 [3] = assay: cells; format: functional, cell-based; details: Homo sapiens
# HEK293 [4] = assay: cells; format: functional, cell-based; details: Homo sapiens; remark: listed apart in the source
# HEK293 [5] = assay: inhibition of NOD1-driven NF-kB reporter – cell-based, luminescence, uHTS, primary screen (AID 1578); format: functional; details: Homo sapiens
# HEK293 [6] = assay: cells; details: Homo sapiens
# Tumor necrosis factor = Tumor necrosis factor (Homo sapiens, UniProt P01375); assay: analog potency on TNFa NF-kB signaling – cell-based, revised, SAR follow-up (AID 2337); format: functional
# HEK293 [7] = assay: NOD2 signaling inhibitors in MDP-stimulated cells, cell-based, uHTS, luminescence (AID 2001); format: functional; details: Homo sapiens
# cells [8] = format: functional, cell-based
# [9] = biological target: T3, Trace amine-associated receptor 1 (Homo sapiens, UniProt Q96RJ0); assay: Fluorescence-based cell-based high throughput dose response assay to identify agonists of the human trace amine associated receptor 1 (TAAR1).; format: functional
# T3 sequence (Q96RJ0 whole entry): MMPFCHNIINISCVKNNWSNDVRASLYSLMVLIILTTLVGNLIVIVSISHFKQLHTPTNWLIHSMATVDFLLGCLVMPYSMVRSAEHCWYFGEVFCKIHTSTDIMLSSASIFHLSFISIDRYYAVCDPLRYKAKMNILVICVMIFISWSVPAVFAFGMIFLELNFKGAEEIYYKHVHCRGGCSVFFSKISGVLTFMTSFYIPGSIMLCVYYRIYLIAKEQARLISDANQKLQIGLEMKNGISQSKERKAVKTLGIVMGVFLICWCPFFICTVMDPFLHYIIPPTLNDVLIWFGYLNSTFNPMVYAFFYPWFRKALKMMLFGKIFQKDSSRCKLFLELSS
# [10] = biological target: Luciferin 4-monooxygenase (Photinus pyralis, UniProt P08659); assay: Counter Screen for Luciferase-based Assay Positives. [Related pubchem assays: 620, 618, 411 ]
# cells [11] = format: functional, cell-based; remark: listed apart in the source
# HT-1080 = assay: HT1080 cell viability loss – fluorescence readout (AID 620); format: functional, cell-based; details: Homo sapiens
# [12] = biological target: T3, Trace amine-associated receptor 1; assay: Counterscreen for agonists of the human trace amine associated receptor 1 (hTAAR1): Fluorescence-based cell-based high throughput dose response assay to identify hTAAR1 agonist that also desensitize TAAR1 receptor response.; format: functional
# X-box-binding protein 1 = biological target: T4, X-box-binding protein 1 (Homo sapiens, UniProt P17861); format: functional, Cricetulus griseus;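 note: confirmatory dose-response counter-screen serving a CHOP assay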
# T4 sequence (P17861 whole entry): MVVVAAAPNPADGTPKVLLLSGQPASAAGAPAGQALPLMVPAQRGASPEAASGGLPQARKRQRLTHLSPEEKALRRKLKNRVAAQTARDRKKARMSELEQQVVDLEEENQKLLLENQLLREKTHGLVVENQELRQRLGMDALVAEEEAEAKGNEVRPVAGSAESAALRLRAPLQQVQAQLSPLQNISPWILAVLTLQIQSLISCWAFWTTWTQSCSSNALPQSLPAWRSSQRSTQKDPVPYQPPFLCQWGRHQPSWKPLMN
# [13] = biological target: Peroxisome proliferator-activated receptor gamma/Nuclear receptor coactivator 2 (Homo sapiens, UniProt P37231); format: functional;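 note: agonist potency for raising coactivator recruitment to the receptor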
# [14] = biological target: Peroxisome proliferator-activated receptor gamma/Nuclear receptor coactivator 3 (Homo sapiens, UniProt P37231); format: functional;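 note: agonist potency for raising coactivator recruitment to the receptor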
# [15] = biological target: Peroxisome proliferator-activated receptor gamma/Nuclear receptor coactivator 1 (Homo sapiens, UniProt P37231); format: functional;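 note: agonist potency as compounds enhance coactivator SRC-1 recruitment to PPARgamma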
# [16] = alpha-synuclein stem-loop luciferase translation blockers – H4 neuroglioma cells, luminescence, confirmation (AID 1988); format: functional, cell-based
# [17] = DRD fibroblast viability loss – cell-based, non-viral oncogenic, luminescence, dose response (AID 1934); format: functional; details: Homo sapiens
# BJ [18] = assay: cells; format: functional, cell-based; details: Homo sapiens
# [19] = luciferase reporter signal suppression in cells – H4 neuroglioma cells, luminescence, dose response (AID 1990); format: functional, cell-based
# BJ [20] = assay: BJ-TERT-LT-ST fibroblast viability loss – cell-based, RAS-independent, luminescence, dose response (AID 1935); format: functional; details: Homo sapiens;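 note: BJ fibroblasts immortalized with TERT plus LT and ST oncogenes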
# BJ [21] = assay: BJ-TERT fibroblast viability loss – cell-based, RAS-independent, luminescence, dose response (AID 1933); format: functional; details: Homo sapiens
# [22] = Luminescence Cell-Based Dose Response HTS to Identify Inhibitors of 5'UTR Stem-Loop Driven Prion Protein mRNA Translation in H4 Neuroglioblastoma Cells. [Related pubchem assays: 1827 (Project Summary), 1813 (Primary HTS)]; format: functional
# [23] = biological target: Glyceraldehyde-3-phosphate dehydrogenase (Homo sapiens, UniProt P04406)
# Chain of Luciferin 4-monooxygenase (P08659 whole entry): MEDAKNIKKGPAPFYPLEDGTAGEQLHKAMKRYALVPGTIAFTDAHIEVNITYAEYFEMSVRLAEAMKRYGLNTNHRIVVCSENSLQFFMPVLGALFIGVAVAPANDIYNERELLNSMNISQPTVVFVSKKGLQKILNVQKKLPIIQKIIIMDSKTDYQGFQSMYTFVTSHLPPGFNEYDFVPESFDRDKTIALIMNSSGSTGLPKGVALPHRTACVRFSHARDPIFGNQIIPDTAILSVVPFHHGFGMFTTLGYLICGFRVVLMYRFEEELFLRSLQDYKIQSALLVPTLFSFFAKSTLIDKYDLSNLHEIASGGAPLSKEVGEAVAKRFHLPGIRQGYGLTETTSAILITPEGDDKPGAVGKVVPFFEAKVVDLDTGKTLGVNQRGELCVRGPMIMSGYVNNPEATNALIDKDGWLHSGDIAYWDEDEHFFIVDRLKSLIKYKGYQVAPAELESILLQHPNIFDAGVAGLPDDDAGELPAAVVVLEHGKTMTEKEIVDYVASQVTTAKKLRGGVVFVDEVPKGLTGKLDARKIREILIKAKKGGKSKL
# Chain of Neurotensin receptor type 1 (P30989 whole entry): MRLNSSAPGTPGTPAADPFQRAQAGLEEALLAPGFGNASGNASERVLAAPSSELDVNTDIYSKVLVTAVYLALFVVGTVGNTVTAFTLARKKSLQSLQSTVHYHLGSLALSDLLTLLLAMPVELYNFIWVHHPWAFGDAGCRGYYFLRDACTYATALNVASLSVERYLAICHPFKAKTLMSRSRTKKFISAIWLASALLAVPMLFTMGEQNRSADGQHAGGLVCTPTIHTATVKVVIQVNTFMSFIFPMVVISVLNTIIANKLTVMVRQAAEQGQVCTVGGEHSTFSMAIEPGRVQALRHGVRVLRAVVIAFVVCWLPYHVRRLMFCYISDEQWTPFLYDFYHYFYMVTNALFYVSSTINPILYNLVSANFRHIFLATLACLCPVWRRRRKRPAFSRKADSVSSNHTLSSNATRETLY
# Chain of Peroxisome proliferator-activated receptor gamma/Nuclear receptor coactivator 3 (P37231 whole entry): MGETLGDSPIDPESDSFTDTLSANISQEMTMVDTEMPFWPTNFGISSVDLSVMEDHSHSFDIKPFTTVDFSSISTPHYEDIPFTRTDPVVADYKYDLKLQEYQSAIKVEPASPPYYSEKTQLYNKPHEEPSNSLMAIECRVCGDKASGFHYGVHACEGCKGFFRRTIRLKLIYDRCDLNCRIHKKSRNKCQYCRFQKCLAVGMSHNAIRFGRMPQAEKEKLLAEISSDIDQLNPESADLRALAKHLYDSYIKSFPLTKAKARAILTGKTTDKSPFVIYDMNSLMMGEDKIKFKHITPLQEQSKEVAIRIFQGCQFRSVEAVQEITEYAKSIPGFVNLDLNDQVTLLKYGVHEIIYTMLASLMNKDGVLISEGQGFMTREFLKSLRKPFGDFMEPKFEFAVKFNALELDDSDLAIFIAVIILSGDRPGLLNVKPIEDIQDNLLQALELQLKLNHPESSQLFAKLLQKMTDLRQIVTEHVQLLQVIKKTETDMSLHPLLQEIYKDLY
# Chain of Peroxisome proliferator-activated receptor gamma/Nuclear receptor coactivator 3 (Q9Y6Q9 whole entry, further chain): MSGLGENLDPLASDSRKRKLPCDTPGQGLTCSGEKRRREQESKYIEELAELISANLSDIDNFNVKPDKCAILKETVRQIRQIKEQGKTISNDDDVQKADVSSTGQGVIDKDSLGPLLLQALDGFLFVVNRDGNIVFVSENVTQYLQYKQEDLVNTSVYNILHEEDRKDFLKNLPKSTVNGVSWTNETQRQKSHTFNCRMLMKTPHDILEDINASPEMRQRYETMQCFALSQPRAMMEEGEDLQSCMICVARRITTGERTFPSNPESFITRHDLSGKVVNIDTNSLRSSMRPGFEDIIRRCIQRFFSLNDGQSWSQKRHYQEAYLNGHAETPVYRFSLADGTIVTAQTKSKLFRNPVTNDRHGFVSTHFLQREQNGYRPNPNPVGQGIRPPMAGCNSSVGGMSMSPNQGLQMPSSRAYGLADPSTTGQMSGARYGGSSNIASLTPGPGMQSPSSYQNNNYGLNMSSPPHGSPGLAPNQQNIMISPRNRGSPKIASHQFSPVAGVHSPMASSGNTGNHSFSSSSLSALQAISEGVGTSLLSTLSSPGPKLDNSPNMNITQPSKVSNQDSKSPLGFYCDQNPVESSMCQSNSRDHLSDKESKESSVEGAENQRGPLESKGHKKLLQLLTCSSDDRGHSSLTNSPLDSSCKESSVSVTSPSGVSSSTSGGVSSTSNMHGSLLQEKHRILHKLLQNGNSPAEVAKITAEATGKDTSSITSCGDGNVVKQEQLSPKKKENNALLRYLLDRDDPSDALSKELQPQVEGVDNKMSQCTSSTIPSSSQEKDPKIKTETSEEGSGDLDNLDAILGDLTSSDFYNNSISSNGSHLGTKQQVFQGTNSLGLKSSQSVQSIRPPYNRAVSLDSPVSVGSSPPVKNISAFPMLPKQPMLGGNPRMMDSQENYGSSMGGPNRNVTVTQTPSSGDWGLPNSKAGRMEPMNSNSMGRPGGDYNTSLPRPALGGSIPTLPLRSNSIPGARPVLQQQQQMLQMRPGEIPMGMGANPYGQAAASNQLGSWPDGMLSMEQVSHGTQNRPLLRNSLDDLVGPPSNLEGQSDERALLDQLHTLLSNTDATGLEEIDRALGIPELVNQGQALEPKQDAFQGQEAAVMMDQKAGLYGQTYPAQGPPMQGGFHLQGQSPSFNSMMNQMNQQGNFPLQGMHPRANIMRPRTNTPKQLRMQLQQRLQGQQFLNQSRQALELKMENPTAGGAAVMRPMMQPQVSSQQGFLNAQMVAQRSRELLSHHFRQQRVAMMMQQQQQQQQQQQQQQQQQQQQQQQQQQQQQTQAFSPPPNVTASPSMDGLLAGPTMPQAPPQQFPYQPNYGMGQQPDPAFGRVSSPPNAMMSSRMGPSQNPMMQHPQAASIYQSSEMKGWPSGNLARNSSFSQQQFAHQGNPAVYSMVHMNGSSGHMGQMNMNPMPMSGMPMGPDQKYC
# Chain of Peroxisome proliferator-activated receptor gamma/Nuclear receptor coactivator 2 (P37231 whole entry): as the sequence (P37231 whole entry) above
# Chain of Peroxisome proliferator-activated receptor gamma/Nuclear receptor coactivator 2 (Q15596 whole entry, further chain): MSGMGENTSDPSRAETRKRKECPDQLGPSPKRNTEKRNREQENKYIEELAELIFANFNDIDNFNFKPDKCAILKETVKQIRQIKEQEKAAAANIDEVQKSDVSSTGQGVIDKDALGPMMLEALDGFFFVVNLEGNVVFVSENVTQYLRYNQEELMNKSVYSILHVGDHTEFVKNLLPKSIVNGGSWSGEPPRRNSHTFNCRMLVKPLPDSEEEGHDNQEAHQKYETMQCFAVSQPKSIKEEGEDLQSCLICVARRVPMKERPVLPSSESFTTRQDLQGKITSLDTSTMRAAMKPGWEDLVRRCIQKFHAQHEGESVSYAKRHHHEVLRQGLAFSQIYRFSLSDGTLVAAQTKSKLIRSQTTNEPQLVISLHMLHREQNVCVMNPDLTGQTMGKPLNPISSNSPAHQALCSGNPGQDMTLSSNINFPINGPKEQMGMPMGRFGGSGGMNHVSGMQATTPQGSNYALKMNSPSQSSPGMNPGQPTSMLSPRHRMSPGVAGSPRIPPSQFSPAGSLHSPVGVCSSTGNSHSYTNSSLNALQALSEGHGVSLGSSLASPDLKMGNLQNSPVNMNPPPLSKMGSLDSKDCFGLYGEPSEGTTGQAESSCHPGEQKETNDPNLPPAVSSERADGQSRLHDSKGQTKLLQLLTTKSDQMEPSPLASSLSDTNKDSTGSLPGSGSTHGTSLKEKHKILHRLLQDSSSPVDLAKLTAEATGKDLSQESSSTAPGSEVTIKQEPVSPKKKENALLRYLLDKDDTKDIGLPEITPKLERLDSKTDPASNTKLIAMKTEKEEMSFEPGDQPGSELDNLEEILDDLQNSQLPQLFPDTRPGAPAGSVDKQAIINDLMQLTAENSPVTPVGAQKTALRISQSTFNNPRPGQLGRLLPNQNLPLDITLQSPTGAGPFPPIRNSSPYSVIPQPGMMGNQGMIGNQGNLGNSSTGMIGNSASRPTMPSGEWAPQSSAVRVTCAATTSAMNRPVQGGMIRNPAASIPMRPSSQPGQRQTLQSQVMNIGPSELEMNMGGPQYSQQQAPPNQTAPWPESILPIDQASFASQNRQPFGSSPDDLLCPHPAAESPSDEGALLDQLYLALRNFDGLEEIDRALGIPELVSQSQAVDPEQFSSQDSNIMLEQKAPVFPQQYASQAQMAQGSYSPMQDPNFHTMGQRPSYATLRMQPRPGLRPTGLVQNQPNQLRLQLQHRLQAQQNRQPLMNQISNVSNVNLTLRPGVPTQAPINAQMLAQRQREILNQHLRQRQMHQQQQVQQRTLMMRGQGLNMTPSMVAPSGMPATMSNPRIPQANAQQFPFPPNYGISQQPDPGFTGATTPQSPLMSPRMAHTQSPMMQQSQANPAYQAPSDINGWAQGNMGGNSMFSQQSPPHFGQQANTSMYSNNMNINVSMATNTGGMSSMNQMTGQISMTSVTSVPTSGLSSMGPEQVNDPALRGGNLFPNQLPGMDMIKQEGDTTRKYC
compound,measurement,setting,value
C=CCn1/c(=N/C(=O)c2cccc(N3C(=O)CCC3=O)c2)sc2cccc(OC)c21,EC50,[1],> 40 µM (inactive)
CCOc1ccc(N(Cc2ccc(OC)cc2)C(=O)c2ccco2)cc1,AC50,CAAX prenyl protease 2,4.23 µM (active)
Oc1nc(/C=C/c2ccccc2C(F)(F)F)cc(C(F)(F)F)n1,IC50,[2],3.82 µM (active)
same,IC50,HEK293 [3],> 20 µM (inactive)
same,IC50,HEK293 [4],> 20 µM (inactive)
same,EC50,HEK293 [5],9.79 µM (active)
same,IC50,HEK293 [6],> 20 µM (inactive)
same,IC50,Tumor necrosis factor,11.3 µM (active)
same,IC50,HEK293 [7],13.3 µM (inactive)
Cc1cc(-c2csc(N)n2)c(C)n1CCc1ccccc1,EC50,cells [8],> 29.9 µM (inactive)
same,EC50,[9],0.449 µM (active)
same,EC50,[10],0.38 µM (active)
same,IC50,cells [11],> 29.9 µM (inactive)
same,EC50,HT-1080,> 50 µM (not active)
same,IC50,[12],3.8 µM (active)
CC1CCc2c(sc3ncn(CC(=O)N=Nc4c(O)[nH]c5ccccc45)c(=O)c23)C1 (centres undefined),Absolute IC50 (XBP1),X-box-binding protein 1,10 µM
Cn1cnnc1SCc1ccc(C(=O)N=Nc2c(O)n(C)c3ccccc23)cc1,EC50,[13],> 79.4 µM (not active)
same,EC50,[14],> 79.4 µM (not active)
same,EC50,[15],> 79.4 µM (not active)
O=C(CSc1nnc(-c2ccccc2)o1)Nc1ccccc1F,EC50,[16],1.21 µM (active)
same,EC50,[17],8.39 µM (active)
same,EC50,[10],2.93 µM (active)
same,EC50,BJ [18],7.86 µM (active)
same,EC50,[19],4.09 µM (inconclusive)
same,EC50,BJ [20],> 150 µM (inconclusive)
same,EC50,HT-1080,> 50 µM (not active)
same,EC50,BJ [21],11.5 µM (active)
same,EC50,[22],1.07 µM (active)
same,IC50,[23],> 100 µM (not active)
